Results on three molecules are retold here after publication PMC7827085 (Pharmaceutics, 2021).

Where two headings read alike, the source gives them in different places.

Series [1] addresses T1, ABCC1/MRP1 (Homo sapiens, UniProt P33527). In words: in vitro. The conditions noted are these: for Effect on ABCC1-dependent CaAM extrusion (in words): HL60/ABCC1 cells; for IC50 at 40 min: human. As for the experimental part: (§1) For the ABC transporter assays, we used both cell-based and membrane-based functional assays. […] The respective transport activities were assayed by measuring the cellular fluorescence of the respective transported substrates Phengreen (ABCG2) and Calcein (ABCB1 and ABCC1).
(§2) The cells were kept on ice until the flow cytometry measurements. All experiments were performed in triplicate and in at least three biological parallels.
(§3) The cells were kept on ice until the flow cytometry measurements. All experiments were performed in triplicate and in at least three biological parallels. […] The PhenGreen (PG) or Calcein signal was detected in the BL1 channel (emission filter: 530/30 nm). Analysis of the data was carried out by the Attune Nxt Cytometer Software v3.1.2 (Thermo Fischer Scientific, Waltham, MA, USA). The inhibition of transporter activity was calculated by comparing the fluorescence in the presence of the test compound to that in the presence of a specific inhibitor providing maximum inhibition. […] Half-maximum inhibition (IC50) values were calculated by using the Origin2019 software (9.6.5.169, OriginLab Corporation, Northampton, MA, USA). […] In these experiments, we measured Hoechst dye extrusion in HeLa cells stably expressing eGFP and the ABCG2 variants driven by the same promoter—the transgenic cells generated by the Sleeping Beauty transposon system. […] For details, see Zámbó et al.). […] The maximum inhibition was defined for each variant as the fluorescence difference of the samples incubated with and without Ko143, respectively. […] Data analysis was performed using the Attune Nxt Cytometer Software v3.1.2. Two samples per condition and three biological replicates were examined in each experiment.
Therefore, we applied this assay to characterize the test drug interactions in intact HL60 cells expressing high levels of the ABCC1 protein.

Series [2] has as its target T2, ABCG2/BCRP (Homo sapiens, UniProt Q9UNQ0).
T2 sequence (Q9UNQ0 1-655): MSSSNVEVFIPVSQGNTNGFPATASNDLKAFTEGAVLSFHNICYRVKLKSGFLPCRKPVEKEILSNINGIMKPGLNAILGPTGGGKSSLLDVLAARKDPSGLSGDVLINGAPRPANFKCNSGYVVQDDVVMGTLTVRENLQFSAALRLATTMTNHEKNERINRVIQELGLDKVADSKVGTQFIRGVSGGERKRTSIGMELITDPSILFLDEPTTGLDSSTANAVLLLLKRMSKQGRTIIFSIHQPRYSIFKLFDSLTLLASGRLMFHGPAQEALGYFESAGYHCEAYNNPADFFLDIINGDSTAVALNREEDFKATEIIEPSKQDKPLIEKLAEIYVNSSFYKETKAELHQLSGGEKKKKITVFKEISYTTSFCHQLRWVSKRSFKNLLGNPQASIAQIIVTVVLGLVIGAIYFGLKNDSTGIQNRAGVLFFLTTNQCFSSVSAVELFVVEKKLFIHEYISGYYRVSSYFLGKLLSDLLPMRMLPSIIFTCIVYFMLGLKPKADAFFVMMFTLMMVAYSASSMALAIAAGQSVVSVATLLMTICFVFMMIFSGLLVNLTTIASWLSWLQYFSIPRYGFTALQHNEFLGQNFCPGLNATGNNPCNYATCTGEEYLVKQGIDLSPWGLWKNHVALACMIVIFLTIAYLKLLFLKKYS
In words: in vitro. The conditions noted are these: for IC50 at 10 min: human. As for the experimental part:
These were employed at 37 °C for 10 min (ABCG2), 1 min (ABCB1), or 3 min (ABCC1), with or without 4 mM Mg-ATP, in a 50 μL final volume. The known reference inhibitors of the transporters (1 µM Ko143 for ABCG2, 1 µM Valspodar for ABCB1, and 200 µM Benzbromarone for ABCC1) served as controls. Each test compound was dissolved in DMSO and a 1 µL volume was added to the samples. After incubation, the samples were filtered and washed, and the substrates in the vesicles were dissolved in 10% SDS and transferred onto another plate. After the addition of a stabilizer, the fluorescence was measured in plate readers (Victor X3 and Enspire Perkin-Elmer, Waltham, MA, USA), while the activity of the radiolabeled substrate was measured by liquid scintillation counting (Perkin Elmer MicroBeta2 liquid scintillation counter, Perkin Elmer, Waltham, MA, USA). ABC transporter-related vesicular transport was calculated by subtracting uptake measured in the presence of Mg-AMP from the values measured in the presence of Mg-ATP.
The effects of the test compounds on ABCG2 activity were also measured in a vesicular transport assay by using inverted membrane vesicles prepared from HEK-293 cells expressing high levels of the ABCG2 transporter.

A further series has as its target ABCB1/MDR1/Pgp (Homo sapiens, UniProt P08183). In words: in vitro. The conditions noted are these: for Effect on ABCB1-dependent CaAM extrusion (in words): PLB-985/ABCB1 cells, test compounds 0.2–50 µM; for IC50 at 40 min: human. The protocol: as §1, §2, §3
ABCB1 is a high-affinity active efflux transporter of the viability dye Calcein-AM (CaAM). […] Here, we applied this widely used cellular assay (see https://www.solvobiotech.com/services/categories/dye-efflux-assays) to characterize drug interactions of the applied compounds in intact PLB-985 cells, expressing high levels of the ABCB1 protein.

Series [3] has as its target T1, ABCC1/MRP1. In words: in vitro.
For series [4], the target named is T1, ABCC1/MRP1. The following applies: Sf9/ABCC1 membrane vesicles.
The target in series [5] is T2, ABCG2/BCRP. In words: in vitro. The conditions noted are these: for Effect on ABCG2-dependent PG-DA extrusion (in words): PLB-985/ABCG2 cells; for IC50 at 40 min: human. The protocol:
as §1, §3
Here, we used both PhenGreen-SK diacetate and Hst dye for these measurements. The PhenGreen (PG) assay is a recently patented method applied for ensuring an efficient ABCG2 transport measurement, as the non-fluorescent PhenGreen diacetate (PG-DA) is actively extruded by ABCG2 and the cellular fluorescence is correlated with ABCG2 transport activity. Therefore, we applied this assay to characterize the test drug interactions in intact PLB-985 cells expressing high levels of the ABCG2 protein. […] ABCG2 inhibition by the test compounds was estimated by their relative (%) inhibition compared to full inhibition by Ko143.

T1 sequence (P33527 whole entry): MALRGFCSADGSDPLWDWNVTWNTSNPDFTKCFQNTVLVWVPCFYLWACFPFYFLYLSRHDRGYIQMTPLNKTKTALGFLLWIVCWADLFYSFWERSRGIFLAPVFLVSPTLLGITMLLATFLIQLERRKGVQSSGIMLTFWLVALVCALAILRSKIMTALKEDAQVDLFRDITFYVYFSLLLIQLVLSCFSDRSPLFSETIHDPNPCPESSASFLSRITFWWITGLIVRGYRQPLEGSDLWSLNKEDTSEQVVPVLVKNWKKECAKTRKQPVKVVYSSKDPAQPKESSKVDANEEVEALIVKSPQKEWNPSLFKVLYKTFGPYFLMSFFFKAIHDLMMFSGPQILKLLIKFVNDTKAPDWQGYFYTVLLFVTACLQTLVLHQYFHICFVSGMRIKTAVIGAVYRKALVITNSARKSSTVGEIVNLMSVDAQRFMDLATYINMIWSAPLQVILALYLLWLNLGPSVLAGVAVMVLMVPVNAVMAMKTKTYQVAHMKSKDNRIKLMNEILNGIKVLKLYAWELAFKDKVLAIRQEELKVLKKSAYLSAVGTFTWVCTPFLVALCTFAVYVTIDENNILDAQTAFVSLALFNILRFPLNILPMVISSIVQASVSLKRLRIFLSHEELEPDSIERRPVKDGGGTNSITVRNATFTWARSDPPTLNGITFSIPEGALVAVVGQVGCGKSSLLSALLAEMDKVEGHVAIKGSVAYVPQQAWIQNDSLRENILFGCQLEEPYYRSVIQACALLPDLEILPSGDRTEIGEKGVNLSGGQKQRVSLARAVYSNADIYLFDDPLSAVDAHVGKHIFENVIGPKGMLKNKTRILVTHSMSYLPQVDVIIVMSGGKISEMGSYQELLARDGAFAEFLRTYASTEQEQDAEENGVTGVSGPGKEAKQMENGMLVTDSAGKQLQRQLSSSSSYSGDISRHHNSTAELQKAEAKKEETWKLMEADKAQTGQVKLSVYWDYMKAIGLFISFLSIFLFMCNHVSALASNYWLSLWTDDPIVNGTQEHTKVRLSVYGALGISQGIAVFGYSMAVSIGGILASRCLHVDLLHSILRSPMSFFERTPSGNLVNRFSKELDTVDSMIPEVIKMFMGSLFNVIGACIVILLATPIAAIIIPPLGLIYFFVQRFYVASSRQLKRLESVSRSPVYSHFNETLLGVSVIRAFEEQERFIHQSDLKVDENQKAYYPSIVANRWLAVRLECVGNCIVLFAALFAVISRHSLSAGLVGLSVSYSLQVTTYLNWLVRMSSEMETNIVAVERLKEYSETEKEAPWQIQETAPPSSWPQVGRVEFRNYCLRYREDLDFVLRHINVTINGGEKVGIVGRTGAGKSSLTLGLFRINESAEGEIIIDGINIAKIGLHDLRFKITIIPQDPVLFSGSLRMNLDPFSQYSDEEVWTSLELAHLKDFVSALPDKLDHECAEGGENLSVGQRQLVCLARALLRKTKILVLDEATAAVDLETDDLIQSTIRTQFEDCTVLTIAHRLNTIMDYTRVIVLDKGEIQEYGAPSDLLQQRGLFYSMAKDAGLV
ABCB1/MDR1/Pgp, sequence (P08183 whole entry): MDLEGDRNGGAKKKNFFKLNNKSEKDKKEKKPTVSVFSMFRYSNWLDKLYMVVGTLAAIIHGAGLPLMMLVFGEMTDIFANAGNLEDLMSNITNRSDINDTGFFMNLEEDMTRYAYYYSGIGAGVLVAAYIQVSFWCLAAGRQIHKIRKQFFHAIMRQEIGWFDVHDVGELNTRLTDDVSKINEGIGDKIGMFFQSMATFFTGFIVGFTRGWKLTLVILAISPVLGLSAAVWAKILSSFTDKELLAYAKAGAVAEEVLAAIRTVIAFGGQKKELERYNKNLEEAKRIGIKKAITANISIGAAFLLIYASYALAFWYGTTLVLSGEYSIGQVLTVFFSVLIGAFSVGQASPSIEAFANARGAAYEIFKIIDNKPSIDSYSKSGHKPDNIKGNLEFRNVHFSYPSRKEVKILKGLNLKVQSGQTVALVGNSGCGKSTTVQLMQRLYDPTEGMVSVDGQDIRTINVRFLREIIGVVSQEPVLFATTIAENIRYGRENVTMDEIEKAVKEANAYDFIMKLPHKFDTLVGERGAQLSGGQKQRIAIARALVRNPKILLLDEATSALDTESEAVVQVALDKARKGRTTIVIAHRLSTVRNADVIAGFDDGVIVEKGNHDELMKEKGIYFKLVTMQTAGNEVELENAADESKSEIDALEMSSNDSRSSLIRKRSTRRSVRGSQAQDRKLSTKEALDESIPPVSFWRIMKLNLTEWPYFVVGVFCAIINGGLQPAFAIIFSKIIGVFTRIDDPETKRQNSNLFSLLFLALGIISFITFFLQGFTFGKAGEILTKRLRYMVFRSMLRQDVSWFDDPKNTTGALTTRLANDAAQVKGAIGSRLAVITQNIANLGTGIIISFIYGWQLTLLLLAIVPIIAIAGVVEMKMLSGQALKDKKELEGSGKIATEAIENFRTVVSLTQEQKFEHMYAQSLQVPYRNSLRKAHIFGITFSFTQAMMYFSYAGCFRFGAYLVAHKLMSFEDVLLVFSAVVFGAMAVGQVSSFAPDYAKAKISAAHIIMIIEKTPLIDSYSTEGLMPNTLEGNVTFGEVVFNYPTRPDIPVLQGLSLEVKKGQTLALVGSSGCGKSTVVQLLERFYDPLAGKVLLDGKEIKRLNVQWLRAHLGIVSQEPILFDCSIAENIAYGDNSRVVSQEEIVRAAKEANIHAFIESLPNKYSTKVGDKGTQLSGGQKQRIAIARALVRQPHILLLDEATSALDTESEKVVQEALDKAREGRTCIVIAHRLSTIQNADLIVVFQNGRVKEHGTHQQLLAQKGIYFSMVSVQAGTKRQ

`NC(=O)c1nc(F)c[nH]c1=O` [favipiravir]: the “Effect on ABCC1-dependent CaAM extrusion (in words)” value at ABCC1/MRP1 [1] is “did not significantly inhibit”. Besides, the IC50 (commonly the concentration at which inhibition is half-maximal) at 40 min is greater than 50 µM at ABCC1/MRP1 [1] (intact HL60 cells expressing ABCC1, probe Calcein-AM, 0.25 µM); greater than 50 µM on ABCB1/MDR1/Pgp (intact PLB-985 cells expressing ABCB1, probe Calcein-AM, 0.25 µM); greater than 50 µM on ABCG2/BCRP [5] (intact PLB-985 cells expressing ABCG2, probe PhenGreen-SK diacetate, 0.25 µM). In addition, the IC50 at 10 min against ABCG2/BCRP [2] (probe lucifer yellow, 5 µM) is greater than 50 µM. Moreover, the “Effect on ABCB1-dependent CaAM extrusion (in words)” value at ABCB1/MDR1/Pgp is given as “did not significantly inhibit”. The same molecule displayed an IC50 at 3 min against ABCC1/MRP1 [3] (inverted membrane vesicles from Sf9 cells expressing ABCC1, probe 3H-estradiol-17b-glucuronide (ETGB), 0.2 µM) greater than 50 µM. Further, the “Effect on ABCC1 vesicular ETGB transport (in words)” value at ABCC1/MRP1 [4] is reported as “practically no effect”. The “Effect on ABCG2-dependent PG-DA extrusion (in words)” value at ABCG2/BCRP [5] is reported as “practically no effect”.

As to `CCC(CC)COC(=O)[C@H](C)N[P@](=O)(OC[C@H]1O[C@@](C#N)(c2ccc3c(N)ncnn23)[C@H](O)[C@@H]1O)Oc1ccccc1` [remdesivir], the “Effect on ABCC1-dependent CaAM extrusion (in words)” value at ABCC1/MRP1 [1] is reported as “did not significantly inhibit”. On ABCG2/BCRP [2], this molecule gave an IC50 greater than 20 µM and an IC50 at 10 min greater than 50 µM. At ABCB1/MDR1/Pgp, the “Effect on ABCB1-dependent CaAM extrusion (in words)” value is “did not significantly inhibit” and the IC50 at 40 min is greater than 50 µM. Besides, at ABCC1/MRP1 [4], the “Concentration above which ABCC1 vesicular ETGB transport was stimulated” value is “above 25 μM” and the “Effect on ABCC1 vesicular ETGB transport (in words)” value was “significantly stimulated”. The same molecule displayed an IC50 at 40 min on ABCG2/BCRP [5] greater than 50 µM.

As to `CCN(CCO)CCCC(C)Nc1ccnc2cc(Cl)ccc12` (stereo not drawn) [hydroxychloroquine], on ABCC1/MRP1 [1], the “Effect on ABCC1-dependent CaAM extrusion (in words)” value is given as “practically no effect” and the IC50 at 40 min was greater than 50 µM. The “Effect on ABCG2 ATP-dependent LY uptake (in words)” value on ABCG2/BCRP [2] (HEK-293/ABCG2 membrane vesicles) is “practically no effect”. In addition, the IC50 at 10 min on ABCG2/BCRP [2] is greater than 50 µM. In addition, at ABCB1/MDR1/Pgp, the “Effect on ABCB1-dependent CaAM extrusion (in words)” value is “practically no effect” and the concentration for half-maximal inhibition (IC50) at 40 min was greater than 50 µM. The IC50 at 3 min against ABCC1/MRP1 [3] was greater than 50 µM. On ABCC1/MRP1 [4], the “Effect on ABCC1 vesicular ETGB transport (in words)” value was “practically no effect”. On ABCG2/BCRP [5], the “Effect on ABCG2-dependent PG-DA extrusion (in words)” value is on record as “practically no effect” and the IC50 at 40 min is greater than 50 µM.
